Tests used:
[1] = test system: RANKL expression; conditions: cultured bone marrow stromal cell line; cited from earlier work
[2] = test system: arthritis pain (mechanical hyperalgesia); test: Rat complete Freund's adjuvant (CFA) model of arthritis pain; format: in vivo; conditions: day 14 post CFA
Protocol: The effect of RANK/RANKL antagonism on arthritis pain was examined in the rat complete Freund's adjuvant (CFA) model of arthritis pain. In this model, injection of 100% complete Freund's adjuvant (CFA) in a 75 μL volume into the left hind paws is followed by a 10-14 day period to allow for the development of arthritis pain. Animals were orally administered zoledronic acid 9 mg/kg (or 54 mg/m^2), or zoledronic acid 60 mg/kg (or 360 mg/m^2) to produce RANK/RANKL antagonism, divided in three equal daily doses on the first three days post CFA injection, or vehicle (control). Drug was dissolved in distilled water and prepared fresh daily. Animals were fasted prior to dosing.
Arthritis pain (mechanical hyperalgesia) in the vehicle and drug-treated animals was evaluated on day 14 post CFA injection using a digital Randall-Selitto device (dRS; IITC Life Sciences, Woodland Hills, Calif.). […] Paw compression threshold was measured by applying increasing pressure to the plantar surface of the hind paw with a dome-shaped tip placed between the 3rd and 4th metatarsus. […]
Reversal of arthritis pain in the ipsilateral (CFA-injected) paw was calculated according to the formula: % reversal=(ipsilateral drug threshold−ipsilateral vehicle threshold)/(contralateral vehicle threshold−ipsilateral vehicle threshold)×100. […]

[3] = test system: low back pain; test: Treatment of patient suffering from low back pain; format: in vivo, human; conditions: patient two, 60 mg subcutaneously, within 6 months after treatment
Protocol: PROLIA® (denosumab, 60 mg) is administered subcutaneously to a patient suffering from low back pain. […] The injection is repeated every six months. IMBRUVICA® (ibrutinib, 420 mg taken orally once daily (three 140 mg capsules once daily)) is administered to a patient suffering from low back pain. […] IMBRUVICA® (ibrutinib, 560 mg taken orally once daily, (four 140 mg capsules once daily)) is administered to a patient suffering from low back pain.

[4] = test system: complex regional pain syndrome; test: Treatment of patient suffering from complex regional pain syndrome; format: in vivo, human; conditions: patient one, 60 mg subcutaneously, within 6 months after treatment
Protocol: PROLIA® (denosumab, 60 mg) is administered subcutaneously to a patient suffering from complex regional pain syndrome. […] The injection is repeated every six months.

[5] = test system: pain associated with arthritis; test: Treatment of patient suffering from pain associated with arthritis; format: in vivo, human; conditions: patient two, 60 mg subcutaneously, within 6 months after treatment
Protocol: PROLIA® (denosumab, 60 mg) is administered subcutaneously to a patient suffering from pain associated with arthritis. […] IMBRUVICA® (ibrutinib, 420 mg taken orally once daily (three 140 mg capsules once daily)) is administered to a patient suffering from pain associated with arthritis. […] IMBRUVICA® (ibrutinib, 560 mg taken orally once daily, (four 140 mg capsules once daily)) is administered to a patient suffering from pain associated with arthritis.

[6] = test system: neuropathic pain; test: Treatment of patient suffering from neuropathic pain; format: in vivo, human; conditions: patient one, 60 mg subcutaneously, within 6 months after treatment
Protocol: PROLIA® (denosumab, 60 mg) is administered subcutaneously to a patient suffering from neuropathic pain. […] The injection is repeated every six months.

[7] = test system: pain associated with osteoarthritis; test: Treatment of patient suffering from pain associated with osteoarthritis; format: in vivo, human; conditions: patient one, 60 mg subcutaneously, within 6 months after treatment
Protocol: PROLIA® (denosumab, 60 mg) is administered subcutaneously to a patient suffering from pain associated with osteoarthritis. […] The injection is repeated every six months. IMBRUVICA® (ibrutinib, 420 mg taken orally once daily (three 140 mg capsules once daily)) is administered to a patient suffering from pain associated with osteoarthritis. […] IMBRUVICA® (ibrutinib, 560 mg taken orally once daily, (four 140 mg capsules once daily)) is administered to a patient suffering from pain associated with osteoarthritis.

Molecule: O=P(O)(O)C(O)(Cc1cnc2ccccn12)P(=O)(O)O [Minodronic acid, minodronic acid]
- RANKL expression [1]: inhibit[] RANKL expression

Molecule: O=P(O)(O)C(O)(Cn1ccnc1)P(=O)(O)O [zoledronic acid]
- reversal of arthritis pain ([2]; oral 9 mg/kg (54 mg/m^2) total in three daily doses): 33%
- reversal of arthritis pain ([2]; oral 60 mg/kg (360 mg/m^2) total in three daily doses): 54%

Molecule: denosumab [PROLIA]
- pain experienced by patient [3]: less pain
- pain experienced by patient [4]: less pain
- pain experienced by patient [5]: less pain
- pain experienced by patient [6]: less pain
- pain experienced by patient [7]: less pain

— patent US9688765B2, “Methods using RANK/RANKL antagonist antibodies for treating pain” (Antecip Bioventures II LLC, priority 2014, dated 2017)
